Results on 5 compounds are retold here after patent US20230416765A1, “AGROBACTERIUM RHIZOGENES AND METHODS OF TRANSFORMING CELLS” (priority 2020, published 2023).

This assay relates to MSU440. In words: Antibiotic susceptibility test on MSU440. The class given is cell-based, Agrobacterium rhizogenes. An excerpt:
The development of a disarmed strain of MSU440 relied on a selectable marker (an antibiotic resistance gene or the counter-selectable marker sacB). Antibiotic susceptibility test on MSU440 were formed with the antibiotics outlined in Table 5.

Setting [1] is: MSU440 response to antibiotic at 50 ug/mL.

Turning to `CC1(C)S[C@@H]2[C@H](NC(=O)C(C(=O)O)c3ccccc3)C(=O)N2[C@H]1C(=O)O` (some centres unmarked) [carbenicillin], the Resistant or susceptible entry (MSU440 response to antibiotic at 100 ug/mL) is listed as “susceptible”.

With `O=C(N[C@H](CO)[C@H](O)c1ccc([N+](=O)[O-])cc1)C(Cl)Cl` [chloramphenicol], the Resistant or susceptible entry (MSU440 response to antibiotic at 30 ug/mL) was “resistant”.

For `CN[C@@H]1[C@H](O)[C@H](NC)[C@H]2O[C@@]3(O)C(=O)C[C@@H](C)O[C@H]3O[C@@H]2[C@H]1O` [spectinomycin], under setting [1], the Resistant or susceptible result is on record as “resistant”.

For the compound `[H]/N=C(/N)N[C@H]1[C@H](O)[C@@H](O)[C@H](O[C@@H]2O[C@@H](C)[C@](O)(C=O)[C@H]2O[C@@H]2O[C@@H](CO)[C@H](O)[C@@H](O)[C@@H]2NC)[C@@H](N/C(N)=N\[H])[C@@H]1O` [streptomycin], under setting [1], the Resistant or susceptible result was “resistant”.

Regarding gentamicin, the Resistant or susceptible entry (MSU440 response to antibiotic at 35 ug/mL) is given as “susceptible”.
